Experimental data published in US9249129B2, “Morpholino substituted urea derivatives as mTOR inhibitors” (CELLZOME LIMITED, priority 2010, dated 2016).

Legend:
Test in all cases: kinobeads assay with mass spectrometry detection of kinases (kinase selectivity profile)
Type in all cases: binding
kinases (kinome) [1] = biological target: T1, kinases (kinome) (Homo sapiens, UniProt P29323); conditions: EphB2 (TK), IPI00021275
T1 construct: determined in kinobeads assays with mass spectrometry detection of kinases as described previously; endogenous in cells; host or cells: cell lysate
T1 sequence (P29323 19-1055): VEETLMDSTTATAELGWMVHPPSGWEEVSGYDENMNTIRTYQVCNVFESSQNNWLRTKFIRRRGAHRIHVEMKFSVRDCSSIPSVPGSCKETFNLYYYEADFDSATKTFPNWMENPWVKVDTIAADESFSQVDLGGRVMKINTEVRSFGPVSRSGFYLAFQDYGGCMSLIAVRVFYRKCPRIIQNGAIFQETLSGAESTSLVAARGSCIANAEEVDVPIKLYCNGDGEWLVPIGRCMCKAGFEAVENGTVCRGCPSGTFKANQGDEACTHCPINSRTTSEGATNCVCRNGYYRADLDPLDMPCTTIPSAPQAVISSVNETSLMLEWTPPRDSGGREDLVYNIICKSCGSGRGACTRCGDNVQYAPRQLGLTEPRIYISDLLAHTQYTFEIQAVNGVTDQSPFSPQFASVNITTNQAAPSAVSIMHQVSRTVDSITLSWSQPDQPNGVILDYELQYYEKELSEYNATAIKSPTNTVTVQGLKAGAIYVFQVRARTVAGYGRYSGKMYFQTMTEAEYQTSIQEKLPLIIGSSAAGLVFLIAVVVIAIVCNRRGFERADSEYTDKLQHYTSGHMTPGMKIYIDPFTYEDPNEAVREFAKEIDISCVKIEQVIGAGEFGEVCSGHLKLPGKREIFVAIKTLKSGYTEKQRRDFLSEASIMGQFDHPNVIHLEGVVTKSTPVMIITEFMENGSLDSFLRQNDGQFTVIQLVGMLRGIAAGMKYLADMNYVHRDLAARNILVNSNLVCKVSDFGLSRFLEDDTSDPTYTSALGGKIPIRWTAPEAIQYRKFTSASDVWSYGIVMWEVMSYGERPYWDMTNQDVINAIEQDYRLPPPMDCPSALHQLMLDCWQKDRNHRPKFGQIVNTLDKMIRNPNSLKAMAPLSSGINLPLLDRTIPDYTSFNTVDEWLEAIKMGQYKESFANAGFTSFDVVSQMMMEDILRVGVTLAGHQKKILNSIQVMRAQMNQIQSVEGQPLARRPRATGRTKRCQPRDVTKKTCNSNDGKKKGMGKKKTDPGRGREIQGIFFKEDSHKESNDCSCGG
Description: (§1) The protein kinase complement of the human genome (the kinome) was described previously (Manning et al., 2002. Science 298(5600):1912-1934). Sequence accession numbers are defined by the International Protein Index (IPI) (Kersey et al., 2004. Proteomics 4(7):1985-1988).

kinases (kinome) [2] = biological target: T2, kinases (kinome) (Homo sapiens, UniProt P09769); conditions: FGR (TK), IPI00016871
T2 construct: determined in kinobeads assays with mass spectrometry detection of kinases as described previously; endogenous in cells; host or cells: cell lysate
T2 sequence (P09769 whole entry): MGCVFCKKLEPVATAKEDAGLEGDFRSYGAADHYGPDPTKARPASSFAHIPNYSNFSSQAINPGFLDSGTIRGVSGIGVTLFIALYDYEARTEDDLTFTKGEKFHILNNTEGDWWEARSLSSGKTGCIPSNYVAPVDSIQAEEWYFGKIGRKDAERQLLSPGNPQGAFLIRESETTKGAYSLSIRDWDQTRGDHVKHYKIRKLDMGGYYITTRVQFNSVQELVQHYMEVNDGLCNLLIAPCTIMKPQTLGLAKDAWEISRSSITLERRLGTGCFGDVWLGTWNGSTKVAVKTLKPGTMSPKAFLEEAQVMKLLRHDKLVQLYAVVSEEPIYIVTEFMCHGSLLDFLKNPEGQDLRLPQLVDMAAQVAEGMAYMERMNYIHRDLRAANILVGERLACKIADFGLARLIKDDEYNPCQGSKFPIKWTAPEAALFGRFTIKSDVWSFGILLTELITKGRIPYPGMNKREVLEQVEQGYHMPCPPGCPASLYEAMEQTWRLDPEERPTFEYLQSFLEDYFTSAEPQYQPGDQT
Description: as §1

kinases (kinome) [3] = biological target: T3, kinases (kinome) (Homo sapiens, UniProt Q8TD19); conditions: NEK9 (Other), IPI00301609
T3 construct: determined in kinobeads assays with mass spectrometry detection of kinases as described previously; endogenous in cells; host or cells: cell lysate
T3 sequence (Q8TD19 1-979): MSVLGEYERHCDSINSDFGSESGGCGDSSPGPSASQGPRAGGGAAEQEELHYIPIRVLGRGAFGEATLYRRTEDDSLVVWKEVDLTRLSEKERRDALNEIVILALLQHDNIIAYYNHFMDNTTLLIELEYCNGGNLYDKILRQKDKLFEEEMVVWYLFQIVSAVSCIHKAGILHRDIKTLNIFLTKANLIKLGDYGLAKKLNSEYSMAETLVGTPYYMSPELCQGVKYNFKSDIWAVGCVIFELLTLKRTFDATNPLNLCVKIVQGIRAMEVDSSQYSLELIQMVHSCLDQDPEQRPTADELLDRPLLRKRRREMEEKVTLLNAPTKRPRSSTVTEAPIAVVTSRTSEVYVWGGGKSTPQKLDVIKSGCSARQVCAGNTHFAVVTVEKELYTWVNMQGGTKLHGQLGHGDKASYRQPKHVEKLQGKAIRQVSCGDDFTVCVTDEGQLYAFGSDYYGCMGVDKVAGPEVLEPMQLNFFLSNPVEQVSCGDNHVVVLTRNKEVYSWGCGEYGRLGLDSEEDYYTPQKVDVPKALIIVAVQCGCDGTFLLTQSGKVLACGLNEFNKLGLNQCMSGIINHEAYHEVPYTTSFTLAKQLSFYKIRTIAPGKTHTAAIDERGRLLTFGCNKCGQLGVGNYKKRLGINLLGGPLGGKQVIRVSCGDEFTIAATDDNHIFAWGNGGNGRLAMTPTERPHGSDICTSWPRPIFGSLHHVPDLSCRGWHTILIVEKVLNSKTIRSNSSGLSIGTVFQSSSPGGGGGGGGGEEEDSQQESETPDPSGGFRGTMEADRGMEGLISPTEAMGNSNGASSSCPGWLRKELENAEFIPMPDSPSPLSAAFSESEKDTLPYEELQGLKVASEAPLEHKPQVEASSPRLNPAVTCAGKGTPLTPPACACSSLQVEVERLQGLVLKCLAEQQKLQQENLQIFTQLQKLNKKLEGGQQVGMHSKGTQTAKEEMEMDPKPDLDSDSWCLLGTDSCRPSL
Description: as §1

kinases (kinome) [4] = biological target: T4, kinases (kinome) (Homo sapiens, UniProt Q07912); conditions: ACK (TK), IPI00552750
T4 construct: determined in kinobeads assays with mass spectrometry detection of kinases as described previously; endogenous in cells; host or cells: cell lysate
T4 sequence (Q07912 whole entry): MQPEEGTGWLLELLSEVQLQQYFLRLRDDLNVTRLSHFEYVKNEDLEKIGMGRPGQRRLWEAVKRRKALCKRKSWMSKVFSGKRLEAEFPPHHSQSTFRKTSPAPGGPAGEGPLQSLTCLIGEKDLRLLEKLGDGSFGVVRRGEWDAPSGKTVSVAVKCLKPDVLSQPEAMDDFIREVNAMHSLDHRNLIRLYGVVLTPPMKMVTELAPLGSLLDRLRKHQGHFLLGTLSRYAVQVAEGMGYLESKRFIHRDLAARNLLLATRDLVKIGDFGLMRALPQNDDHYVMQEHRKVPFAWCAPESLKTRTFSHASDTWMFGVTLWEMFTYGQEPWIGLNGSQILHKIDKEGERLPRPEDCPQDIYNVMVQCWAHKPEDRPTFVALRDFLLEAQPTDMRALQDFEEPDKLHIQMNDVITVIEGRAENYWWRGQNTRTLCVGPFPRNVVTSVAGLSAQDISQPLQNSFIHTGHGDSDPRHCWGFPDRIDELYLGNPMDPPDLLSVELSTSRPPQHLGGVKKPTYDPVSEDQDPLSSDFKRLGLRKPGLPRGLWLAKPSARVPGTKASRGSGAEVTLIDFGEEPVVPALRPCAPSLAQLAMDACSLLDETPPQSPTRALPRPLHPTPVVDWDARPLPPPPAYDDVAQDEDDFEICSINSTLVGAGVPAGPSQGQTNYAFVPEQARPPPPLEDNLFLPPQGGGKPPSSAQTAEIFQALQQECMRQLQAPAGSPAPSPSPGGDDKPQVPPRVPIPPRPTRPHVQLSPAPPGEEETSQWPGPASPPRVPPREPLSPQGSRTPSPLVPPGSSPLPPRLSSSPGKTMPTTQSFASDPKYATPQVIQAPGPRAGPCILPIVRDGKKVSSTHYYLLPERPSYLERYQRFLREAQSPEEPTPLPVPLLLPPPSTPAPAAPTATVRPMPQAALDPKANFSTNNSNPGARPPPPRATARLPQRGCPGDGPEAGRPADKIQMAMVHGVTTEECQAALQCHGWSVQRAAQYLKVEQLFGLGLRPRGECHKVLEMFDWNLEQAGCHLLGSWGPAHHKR
Description: as §1

kinases (kinome) [5] = biological target: T5, kinases (kinome) (Homo sapiens, UniProt Q13555); conditions: CaMK2g (CAMK), IPI00908444
T5 construct: determined in kinobeads assays with mass spectrometry detection of kinases as described previously; endogenous in cells; host or cells: cell lysate
T5 sequence (Q13555 whole entry): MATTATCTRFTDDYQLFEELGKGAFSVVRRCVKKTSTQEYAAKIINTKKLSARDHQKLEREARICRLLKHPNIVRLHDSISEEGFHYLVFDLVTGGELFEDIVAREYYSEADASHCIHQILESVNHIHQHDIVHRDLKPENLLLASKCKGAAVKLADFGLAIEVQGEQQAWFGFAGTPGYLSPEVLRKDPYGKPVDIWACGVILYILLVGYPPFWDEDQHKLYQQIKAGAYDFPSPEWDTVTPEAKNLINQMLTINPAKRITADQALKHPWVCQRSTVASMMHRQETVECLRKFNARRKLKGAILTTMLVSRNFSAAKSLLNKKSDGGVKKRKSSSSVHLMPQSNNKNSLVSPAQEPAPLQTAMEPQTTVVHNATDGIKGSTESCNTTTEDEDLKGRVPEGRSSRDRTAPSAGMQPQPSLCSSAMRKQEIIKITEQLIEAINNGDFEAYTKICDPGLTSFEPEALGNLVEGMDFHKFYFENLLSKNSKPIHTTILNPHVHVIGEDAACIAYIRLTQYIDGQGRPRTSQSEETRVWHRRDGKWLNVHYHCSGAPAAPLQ
Description: as §1

kinases (kinome) [6] = biological target: T6, kinases (kinome) (Homo sapiens, UniProt Q16512); conditions: PKN1 (AGC), IPI00412672
T6 construct: determined in kinobeads assays with mass spectrometry detection of kinases as described previously; endogenous in cells; host or cells: cell lysate
T6 sequence (Q16512 whole entry): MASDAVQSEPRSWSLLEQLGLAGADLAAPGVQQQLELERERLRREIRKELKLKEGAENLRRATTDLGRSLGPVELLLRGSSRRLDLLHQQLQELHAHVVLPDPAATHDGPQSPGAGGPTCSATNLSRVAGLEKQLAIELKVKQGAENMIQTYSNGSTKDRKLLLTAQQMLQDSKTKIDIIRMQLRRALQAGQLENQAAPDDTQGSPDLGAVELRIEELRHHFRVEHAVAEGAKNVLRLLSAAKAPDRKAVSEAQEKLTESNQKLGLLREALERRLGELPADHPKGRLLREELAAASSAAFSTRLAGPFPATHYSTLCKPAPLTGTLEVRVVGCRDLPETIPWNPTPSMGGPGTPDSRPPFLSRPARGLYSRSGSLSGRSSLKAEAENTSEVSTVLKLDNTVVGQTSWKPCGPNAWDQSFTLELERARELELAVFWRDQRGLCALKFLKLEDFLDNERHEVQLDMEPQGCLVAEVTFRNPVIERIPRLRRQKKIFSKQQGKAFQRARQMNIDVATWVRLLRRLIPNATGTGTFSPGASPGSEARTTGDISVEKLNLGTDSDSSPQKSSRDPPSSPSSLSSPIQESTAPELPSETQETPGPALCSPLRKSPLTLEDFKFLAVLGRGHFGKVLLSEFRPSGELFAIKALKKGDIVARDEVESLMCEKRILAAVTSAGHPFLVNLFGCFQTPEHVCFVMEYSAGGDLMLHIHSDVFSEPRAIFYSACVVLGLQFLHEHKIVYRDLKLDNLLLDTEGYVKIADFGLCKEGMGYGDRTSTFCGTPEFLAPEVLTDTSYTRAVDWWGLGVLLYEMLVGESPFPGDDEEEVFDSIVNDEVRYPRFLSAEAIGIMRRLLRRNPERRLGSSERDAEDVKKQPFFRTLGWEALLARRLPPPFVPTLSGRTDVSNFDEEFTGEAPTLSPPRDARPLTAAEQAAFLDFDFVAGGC
Description: as §1

kinases (kinome) [7] = biological target: T7, kinases (kinome) (Homo sapiens, UniProt P48730); conditions: CK1d (CK1), IPI00011102
T7 construct: determined in kinobeads assays with mass spectrometry detection of kinases as described previously; endogenous in cells; host or cells: cell lysate
T7 sequence (P48730 whole entry): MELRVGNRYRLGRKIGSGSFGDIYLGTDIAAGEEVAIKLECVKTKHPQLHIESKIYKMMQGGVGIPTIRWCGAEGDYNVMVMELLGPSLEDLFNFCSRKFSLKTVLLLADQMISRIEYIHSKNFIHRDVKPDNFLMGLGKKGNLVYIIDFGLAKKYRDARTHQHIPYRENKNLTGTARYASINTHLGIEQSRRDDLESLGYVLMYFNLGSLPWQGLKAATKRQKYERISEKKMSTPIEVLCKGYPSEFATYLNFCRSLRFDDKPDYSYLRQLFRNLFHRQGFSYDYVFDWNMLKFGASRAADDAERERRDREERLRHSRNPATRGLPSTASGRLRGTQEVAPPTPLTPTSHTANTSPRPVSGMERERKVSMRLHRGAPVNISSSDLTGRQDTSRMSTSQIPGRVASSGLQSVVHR
Description: as §1

Measured: IC50

C[C@H]1COCCN1c1nc(-c2ccc(NC(=O)N[C@H]3CCC[C@@H]3O)cc2)cc(-c2cc(F)ccc2S(C)(=O)=O)n1 [Example 76, 1-(4-(6-(5-fluoro-2-(methylsulfonyl)phenyl)-2-((S)-3-methylmorpholino)pyrimidin-4-yl)phenyl)-3-((1S,2S)-2-hydroxycyclopentyl)urea]
not listed: kinases (kinome) [7]
> 10 µM: all other assays above

C[C@H]1COCCN1c1nc(-c2ccc(NC(=O)NC3CC3)cc2)cc(-c2ccccc2S(C)(=O)=O)n1 [Example 4, (S)-1-cyclopropyl-3-(4-(2-(3-methylmorpholino)-6-(2-(methylsulfonyl)phenyl)pyrimidin-4-yl)phenyl)urea]
> 10 µM: all assays above

C[C@H]1COCCN1c1cc(-c2ccccc2S(C)(=O)=O)nc(-c2ccc(NC(=O)NC3CC3)cc2)n1 [Example 6, (S)-1-cyclopropyl-3-(4-(4-(3-methylmorpholino)-6-(2-(methylsulfonyl)phenyl)pyrimidin-2-yl)phenyl)urea]
> 10 µM: all assays above

C[C@H]1COCCN1c1cc(-c2ccccn2)nc(-c2ccc(NC(=O)NCCO)cc2)n1 [Example 43, (S)-1-(2-hydroxyethyl)-3-(4-(4-(3-methylmorpholino)-6-(pyridin-2-yl)pyrimidin-2-yl)phenyl)urea]
> 10 µM: all assays above

C[C@H]1COCCN1c1nc(-c2ccc(NC(=O)NC3CC3)cc2)cc(-c2cccnc2S(C)(=O)=O)n1 [Example 46, (S)-1-cyclopropyl-3-(4-(2-(3-methylmorpholino)-6-(2-(methylsulfonyl)pyridin-3-yl)pyrimidin-4-yl)phenyl)urea]
> 10 µM: all assays above

CCNC(=O)Nc1ccc(-c2cc(-c3ccccc3C#N)nc(N3CCOC[C@@H]3C)n2)cc1 [Example 8, (S)-1-(4-(6-(2-cyanophenyl)-2-(3-methylmorpholino)pyrimidin-4-yl)phenyl)-3-ethylurea]
> 10 µM: all assays above

C[C@H]1COCCN1c1nc(-c2ccc(NC(=O)NC3CC3)cc2)cc(-c2cc(F)ccc2S(C)(=O)=O)n1 [Example 40, (S)-1-cyclopropyl-3-(4-(6-(5-fluoro-2-(methylsulfonyl)phenyl)-2-(3-methylmorpholino)pyrimidin-4-yl)phenyl)urea]
> 10 µM: all assays above
